Data from patent US11420973B2, “Amide substituted indole compounds useful as TLR inhibitors” (BRISTOL-MYERS SQUIBB COMPANY, priority 2017, dated 2022).
pIC50: −log10 of the molar value. Read-outs that look alike come from different tables or passages of the source.

What was measured:
human TLR8 = human TLR8 (Homo sapiens (Human), UniProt Q9NR97); test: TLR8 inhibition reporter assay (HEK-Blue SEAP reporter, R848 stimulation); settings: read-out: TLR8 IC50, HEK-Blue cells overexpressing human TLR8, R848 15.9 μM, SEAP reporter;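 also: SEAP driven by IFN-β minimal promoter with NF-κB and AP-1 sites, 22 h incubation, compounds 0.05 nM–50 µM, inhibition scaled between agonist plus DMSO and reference inhibitor wells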
human TLR8, sequence (Q9NR97 27-1041): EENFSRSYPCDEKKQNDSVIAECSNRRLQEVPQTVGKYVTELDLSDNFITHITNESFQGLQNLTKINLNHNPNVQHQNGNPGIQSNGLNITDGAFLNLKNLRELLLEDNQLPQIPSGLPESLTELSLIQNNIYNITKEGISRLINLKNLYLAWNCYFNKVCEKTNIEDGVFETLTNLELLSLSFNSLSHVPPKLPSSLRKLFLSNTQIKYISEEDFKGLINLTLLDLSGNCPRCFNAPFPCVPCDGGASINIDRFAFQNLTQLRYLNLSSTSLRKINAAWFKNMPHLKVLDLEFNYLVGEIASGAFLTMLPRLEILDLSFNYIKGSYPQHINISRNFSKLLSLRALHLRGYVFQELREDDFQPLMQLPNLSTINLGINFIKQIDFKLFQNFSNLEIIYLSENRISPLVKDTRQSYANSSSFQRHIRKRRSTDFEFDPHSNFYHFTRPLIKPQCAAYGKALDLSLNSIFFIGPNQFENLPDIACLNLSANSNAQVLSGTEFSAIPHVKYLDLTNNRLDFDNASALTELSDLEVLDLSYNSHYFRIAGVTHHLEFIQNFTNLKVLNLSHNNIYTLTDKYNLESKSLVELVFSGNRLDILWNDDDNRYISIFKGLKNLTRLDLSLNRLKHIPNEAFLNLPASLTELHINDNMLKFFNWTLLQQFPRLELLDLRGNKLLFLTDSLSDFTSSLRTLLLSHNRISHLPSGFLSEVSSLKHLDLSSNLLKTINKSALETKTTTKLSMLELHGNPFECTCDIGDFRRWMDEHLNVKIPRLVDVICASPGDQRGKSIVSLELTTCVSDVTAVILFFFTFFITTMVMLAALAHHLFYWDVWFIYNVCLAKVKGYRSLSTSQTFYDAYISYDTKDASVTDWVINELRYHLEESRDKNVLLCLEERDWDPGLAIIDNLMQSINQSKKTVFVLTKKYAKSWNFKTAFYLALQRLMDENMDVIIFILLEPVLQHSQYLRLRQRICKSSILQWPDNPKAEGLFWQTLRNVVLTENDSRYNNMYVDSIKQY

human TLR9 = human TLR9 (Homo sapiens (Human), UniProt Q9NR96); test: TLR9 inhibition reporter assay (HEK-Blue SEAP reporter, ODN2006 stimulation); settings: read-out: TLR9 IC50, HEK-Blue cells overexpressing human TLR9, ODN2006 5 nM, SEAP reporter;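 also: SEAP reporter under IFN-β minimal promoter with five NF-κB and AP-1 sites, 22 h incubation, compounds 0.05 nM–50 µM, inhibition relative to agonist plus DMSO versus known inhibitor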
human TLR9, sequence (Q9NR96 26-1032): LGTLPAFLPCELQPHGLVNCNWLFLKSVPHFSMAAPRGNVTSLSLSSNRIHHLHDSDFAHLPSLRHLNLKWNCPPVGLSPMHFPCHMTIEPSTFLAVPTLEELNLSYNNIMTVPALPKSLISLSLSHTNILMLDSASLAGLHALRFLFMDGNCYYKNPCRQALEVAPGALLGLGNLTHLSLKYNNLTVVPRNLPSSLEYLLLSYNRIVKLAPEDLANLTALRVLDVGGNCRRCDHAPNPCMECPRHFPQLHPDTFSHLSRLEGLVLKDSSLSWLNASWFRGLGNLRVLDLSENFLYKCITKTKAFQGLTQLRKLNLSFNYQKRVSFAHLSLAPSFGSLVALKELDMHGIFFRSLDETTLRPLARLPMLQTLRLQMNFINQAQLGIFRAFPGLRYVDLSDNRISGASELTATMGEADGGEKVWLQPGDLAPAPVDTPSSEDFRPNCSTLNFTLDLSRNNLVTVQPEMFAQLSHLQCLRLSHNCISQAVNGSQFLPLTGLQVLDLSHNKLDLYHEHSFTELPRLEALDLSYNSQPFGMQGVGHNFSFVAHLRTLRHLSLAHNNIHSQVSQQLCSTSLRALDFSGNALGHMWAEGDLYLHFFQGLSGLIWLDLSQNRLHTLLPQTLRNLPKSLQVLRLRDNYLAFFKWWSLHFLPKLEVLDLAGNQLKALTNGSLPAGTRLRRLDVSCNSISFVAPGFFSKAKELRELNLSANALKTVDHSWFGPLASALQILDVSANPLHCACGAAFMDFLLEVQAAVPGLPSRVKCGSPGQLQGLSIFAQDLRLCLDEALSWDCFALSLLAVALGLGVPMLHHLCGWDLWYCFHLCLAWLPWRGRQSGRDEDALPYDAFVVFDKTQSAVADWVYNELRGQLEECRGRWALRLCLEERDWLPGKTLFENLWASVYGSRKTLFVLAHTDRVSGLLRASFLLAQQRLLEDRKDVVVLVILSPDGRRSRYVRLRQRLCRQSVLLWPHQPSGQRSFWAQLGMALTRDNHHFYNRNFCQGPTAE
Procedure: (§1) HEK-Blue™-cells (Invivogen) overexpressing human TLR7, TLR8 or TLR9 receptors were used for screening inhibitors of these receptors using an inducible SEAP (secreted embryonic alkaline phosphatase) reporter gene under the control of the IFN-β minimal promoter fused to five NF-κB and AP-1-binding sites. Briefly, cells are seeded into Greiner 384 well plates (15000 cells per well for TLR7, 20,000 for TLR8 and 25,000 for TLR9) and then treated with test compounds in DMSO to yield a final dose response concentration range of 0.05 nM-50 μM. After a 30 minute compound pre-treatment at room temperature, the cells are then stimulated with a TLR7 ligand (gardiquimod at a final concentration of 7.5 μM), TLR8 ligand (R848 at a final concentration of 15.9 μM) or TLR9 ligand (ODN2006 at a final concentration of 5 nM) to activate NF-κB and AP-1 which induce the production of SEAP. After a 22 hour incubation at 37° C., 5% CO2, SEAP levels are determined with the addition of HEK-Blue™ Detection reagent (Invivogen), a cell culture medium that allows for detection of SEAP, according to manufacturer's specifications.

human TLR7 = human TLR7 (Homo sapiens (Human), UniProt Q9NYK1); test: TLR7 inhibition reporter assay (HEK-Blue SEAP reporter, gardiquimod stimulation); format: cell-based; settings: HEK-Blue cells overexpressing human TLR7, gardiquimod 7.5 μM
human TLR7, sequence (Q9NYK1 27-1049): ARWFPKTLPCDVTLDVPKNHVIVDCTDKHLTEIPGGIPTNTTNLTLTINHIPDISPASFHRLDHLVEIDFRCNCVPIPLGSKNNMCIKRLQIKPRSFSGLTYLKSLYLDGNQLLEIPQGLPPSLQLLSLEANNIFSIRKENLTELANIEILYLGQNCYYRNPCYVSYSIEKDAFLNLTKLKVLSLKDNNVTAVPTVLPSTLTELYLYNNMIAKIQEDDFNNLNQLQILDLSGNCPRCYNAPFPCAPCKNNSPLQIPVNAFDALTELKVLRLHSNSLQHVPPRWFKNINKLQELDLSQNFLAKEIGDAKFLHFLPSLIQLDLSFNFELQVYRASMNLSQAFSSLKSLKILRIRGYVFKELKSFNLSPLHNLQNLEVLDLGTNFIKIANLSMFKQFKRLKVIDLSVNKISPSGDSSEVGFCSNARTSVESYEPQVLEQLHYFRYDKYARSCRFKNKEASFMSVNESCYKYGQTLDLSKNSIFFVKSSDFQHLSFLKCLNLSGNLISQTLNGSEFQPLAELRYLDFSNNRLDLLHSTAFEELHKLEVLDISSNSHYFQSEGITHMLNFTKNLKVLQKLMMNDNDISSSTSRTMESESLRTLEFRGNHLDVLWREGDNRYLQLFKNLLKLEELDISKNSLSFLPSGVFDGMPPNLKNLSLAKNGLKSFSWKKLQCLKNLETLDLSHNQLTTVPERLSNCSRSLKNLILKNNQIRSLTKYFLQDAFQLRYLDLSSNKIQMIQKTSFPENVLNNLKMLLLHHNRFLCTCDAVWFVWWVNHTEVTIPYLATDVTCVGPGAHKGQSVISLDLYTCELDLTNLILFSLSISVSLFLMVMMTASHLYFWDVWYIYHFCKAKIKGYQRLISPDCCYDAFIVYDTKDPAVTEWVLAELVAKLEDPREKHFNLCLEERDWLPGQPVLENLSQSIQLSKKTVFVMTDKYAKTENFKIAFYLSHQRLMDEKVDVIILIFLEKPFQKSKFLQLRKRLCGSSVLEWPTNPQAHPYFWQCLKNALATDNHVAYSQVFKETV
Procedure: as §1

| SMILES | pIC50 (human TLR8; listed as 700) | pIC50 (human TLR9; listed as 700) | pIC50 (human TLR7; listed as 700) | pIC50 (human TLR8) | pIC50 (human TLR9) | pIC50 (human TLR7) |
| --- | --- | --- | --- | --- | --- | --- |
| CCc1c(-c2ccnc3[nH]ccc23)[nH]c2ccc(C(=O)N(CC)CCN(C)C)cc12 [Example 83, N-(2-(dimethylamino)ethyl)-N,3-diethyl-2-(1H-pyrrolo[2,3-b]pyridin-4-yl)-1H-indole-5-carboxamide] |  |  |  | 9.30 | 5.63 | 7.80 |
| CCc1c(-c2ccc(OC)c(OC)c2)[nH]c2ccc(C(=O)N3CCCN(c4ncccn4)CC3)cc12 [Example 64, (2-(3,4-dimethoxyphenyl)-3-ethyl-1H-indol-5-yl)(4-(pyrimidin-2-yl)-1,4-diazepan-1-yl)methanone] |  |  |  | 5.66 | 4.78 | 5.89 |
| CCN(CC)C(=O)C1CCCN(CC(=O)N2CC3CN(C(=O)c4ccc5[nH]c(-c6ccc(OC)c(OC)c6)c(C(C)C)c5c4)CC3C2)C1 (single isomer, unassigned) [Example 11, 1-(2-{5-[2-(3,4-dimethoxyphenyl)-3-(propan-2-yl)-1H-indole-5-carbonyl]-octahydropyrrolo[3,4-c]pyrrol-2-yl}-2-oxoethyl)-N,N-diethylpiperidine-3-carboxamide] |  |  |  | 6.19 | 4.44 | 6.22 |
| Cc1cc(-c2[nH]c3ccc(C(C)C(=O)NCC4CCCNC4)cc3c2C(C)C)ccn1 (stereo not drawn) [Example 213, 2-(3-isopropyl-2-(2-methylpyridin-4-yl)-1H-indol-5-yl)-N-(piperidin-3-ylmethyl)propanamide] |  |  |  | 6.62 | 5.58 | 6.33 |
| CCc1c(-c2ccc(OC)c(OC)c2)[nH]c2ccc(C(=O)N3CCC(C(N)=O)CC3)cc12 [Example 34, 1-(2-(3,4-dimethoxyphenyl)-3-ethyl-1H-indole-5-carbonyl)piperidine-4-carboxamide] |  |  |  | 6.66 | < 4.30 | 5.93 |
| CNCCN1CC2CN(C(=O)c3ccc4[nH]c(-c5ccc(OC)c(OC)c5)c(C(C)C)c4c3)CC2C1 (stereo not drawn) [Example 12, (2-(3,4-dimethoxyphenyl)-3-isopropyl-1H-indol-5-yl)(5-(2-(methylamino)ethyl)hexahydropyrrolo[3,4-c]pyrrol-2(1H)-yl)methanone] |  |  |  | 6.76 | 5.92 | 6.56 |
| Cc1cc(-c2[nH]c3ccc(C(=O)NCCN(C)C)cc3c2C(C)C)cc(C)n1 [Example 96, N-(2-(dimethylamino)ethyl)-2-(2,6-dimethylpyridin-4-yl)-3-isopropyl-1H-indole-5-carboxamide] |  |  |  | 8.14 | 5.82 | 7.12 |
| CCc1c(-c2ccc(OC)c(OC)c2)[nH]c2ccc(C(=O)N3CCN(c4ncccn4)CC3)cc12 [Example 57, (2-(3,4-dimethoxyphenyl)-3-ethyl-1H-indol-5-yl)(4-(pyrimidin-2-yl)piperazin-1-yl)methanone] |  |  |  | 6.66 | < 4.30 | 6.24 |
| CCc1c(-c2ccc(OC)c(OC)c2)[nH]c2ccc(C(=O)N3CCC(n4c(=O)[nH]c5ccccc54)CC3)cc12 [Example 63, 1-(1-(2-(3,4-dimethoxyphenyl)-3-ethyl-1H-indole-5-carbonyl)piperidin-4-yl)-1,3-dihydro-2H-benzo[d]imidazol-2-one] |  |  |  | 6.33 | 4.87 | 6.10 |
| CCc1c(-c2ccc(OC)c(OC)c2)[nH]c2ccc(C(=O)NCCN3CCCC3)cc12 [Example 48, 2-(3,4-dimethoxyphenyl)-3-ethyl-N-(2-(pyrrolidin-1-yl)ethyl)-1H-indole-5-carboxamide] |  |  |  | 8.32 | 5.57 | 6.84 |
| Cc1cc(-c2[nH]c3ccc(C(C)C(=O)N[C@H]4CCNC4)cc3c2C(C)C)ccn1 (stereo partly drawn) [Example 189, 2-(3-isopropyl-2-(2-methylpyridin-4-yl)-1H-indol-5-yl)-N—((S)-pyrrolidin-3-yl)propanamide] |  |  |  | 6.61 | 5.78 | 6.57 |
| Cc1cc(-c2[nH]c3ccc(C(C)(C)C(=O)NC4CCN(C5CCNC5)CC4)cc3c2C(C)C)ccn1 (stereo not drawn) [Example 145, 2-(3-isopropyl-2-(2-methylpyridin-4-yl)-1H-indol-5-yl)-2-methyl-N-(1-(pyrrolidin-3-yl)piperidin-4-yl)propanamide] |  |  |  | 6.11 | 5.35 | 6.26 |
| Cc1cc(-c2[nH]c3ccc(C(C)C(=O)N4CCCC(CCN)C4)cc3c2C(C)C)ccn1 (stereo not drawn) [Example 206, 1-(3-(2-aminoethyl)piperidin-1-yl)-2-(3-isopropyl-2-(2-methylpyridin-4-yl)-1H-indol-5-yl)propan-1-one] |  |  |  | 6.90 | 6.16 | 6.29 |

Continued, values first:

| pIC50 (human TLR8; listed as 700) | pIC50 (human TLR9; listed as 700) | pIC50 (human TLR7; listed as 700) | pIC50 (human TLR8) | pIC50 (human TLR9) | pIC50 (human TLR7) | SMILES |
| --- | --- | --- | --- | --- | --- | --- |
| 7.16 | 6.16 | 7.92 |  |  |  | Cc1cc(-c2[nH]c3ccc(C(C)C(=O)N4CCCC5(CCCCC5N)C4)cc3c2C(C)C)ccn1 (stereo not drawn) [Example 200, 1-(7-amino-2-azaspiro[5.5]undecan-2-yl)-2-(3-isopropyl-2-(2-methylpyridin-4-yl)-1H-indol-5-yl)propan-1-one] |
|  |  |  | 7.47 | 5.21 | 6.73 | CCc1c(-c2ccc(OC)c(OC)c2)[nH]c2ccc(C(=O)N3CC[C@@H](N(C)C)C3)cc12 [Example 29, (R)-(2-(3,4-dimethoxyphenyl)-3-ethyl-1H-indol-5-yl)(3-(dimethylamino)pyrrolidin-1-yl)methanone] |
|  |  |  | 6.40 | < 4.30 | 6.55 | Cc1cc(-c2[nH]c3ccc(C(C)(C)C(=O)NC[C@@H](F)C(C)(C)O)cc3c2C(C)C)ccn1 [Example 133, (R)—N-(2-fluoro-3-hydroxy-3-methylbutyl)-2-(3-isopropyl-2-(2-methylpyridin-4-yl)-1H-indol-5-yl)-2-methylpropanamide] |
|  |  |  | 7.28 | 6.03 | 7.28 | Cc1cc(-c2[nH]c3ccc(C(C)(C)C(=O)N4CCCC(CN)C4)cc3c2C(C)C)ccn1 (stereo not drawn) [Example 156, 1-(3-(aminomethyl)piperidin-1-yl)-2-(3-isopropyl-2-(2-methylpyridin-4-yl)-1H-indol-5-yl)-2-methylpropan-1-one] |
|  |  |  | 6.57 | 5.40 | 6.46 | CNC(=O)CN1CC2CN(C(=O)c3ccc4[nH]c(-c5ccc(OC)c(OC)c5)c(C(C)C)c4c3)CC2C1 (stereo not drawn) [Example 7, 2-(5-(2-(3,4-dimethoxyphenyl)-3-isopropyl-1H-indole-5-carbonyl)hexahydropyrrolo[3,4-c]pyrrol-2(1H)-yl)-N-methylacetamide] |
|  |  |  | 6.83 | 5.47 | 6.69 | Cc1cc(-c2[nH]c3ccc(C(C)C(=O)NC4CCNCC4)cc3c2C(C)C)ccn1 (stereo not drawn) [Example 193, 2-(3-isopropyl-2-(2-methylpyridin-4-yl)-1H-indol-5-yl)-N-(piperidin-4-yl)propanamide] |
|  |  |  | 7.15 | 5.73 | 7.13 | Cc1cc(-c2[nH]c3ccc(C(C)C(=O)N4CCCC5(CCCCC5N)C4)cc3c2C(C)C)ccn1 (stereo not drawn) [Example 201, 1-(7-amino-2-azaspiro[5.5]undecan-2-yl)-2-(3-isopropyl-2-(2-methylpyridin-4-yl)-1H-indol-5-yl)propan-1-one] |
|  |  |  | 7.19 | 6.17 | 7.59 | Cc1cc(-c2[nH]c3ccc(C(C)(C)C(=O)NC4CCC5CNCC54)cc3c2C(C)C)ccn1 (stereo not drawn) [Example 144, 2-(3-isopropyl-2-(2-methylpyridin-4-yl)-1H-indol-5-yl)-2-methyl-N-(octahydrocyclopenta[c]pyrrol-4-yl)propanamide] |
|  |  |  | 6.32 | 4.40 | 6.15 | CCc1c(-c2ccc(OC)c(OC)c2)[nH]c2ccc(C(=O)N(CCOC)CCOC)cc12 [Example 77, 2-(3,4-dimethoxyphenyl)-3-ethyl-N,N-bis(2-methoxyethyl)-1H-indole-5-carboxamide] |
|  |  |  | 7.17 | 6.05 | 7.24 | Cc1cc(-c2[nH]c3ccc(C(C)(C)C(=O)N[C@@H]4CCNC4)cc3c2C(C)C)ccn1 [Example 141, (R)-2-(3-isopropyl-2-(2-methylpyridin-4-yl)-1H-indol-5-yl)-2-methyl-N-(pyrrolidin-3-yl)propanamide] |
|  |  |  | 6.85 | 5.83 | 7.66 | Cc1cc(-c2[nH]c3ccc(C(C)(C)C(=O)N4CCC5(CCN(C)C5)CC4)cc3c2C(C)C)ccn1 [Example 150, 2-(3-isopropyl-2-(2-methylpyridin-4-yl)-1H-indol-5-yl)-2-methyl-1-(2-methyl-2,8-diazaspiro[4.5]decan-8-yl)propan-1-one] |
|  |  |  | 6.35 | 4.66 | 6.29 | CCc1c(-c2ccc(OC)c(OC)c2)[nH]c2ccc(C(=O)N3CC4CN(CC(=O)NC)CC4C3)cc12 (stereo not drawn) [Example 82, 2-(5-(2-(3,4-dimethoxyphenyl)-3-ethyl-1H-indole-5-carbonyl)hexahydropyrrolo[3,4-c]pyrrol-2(1H)-yl)-N-methylacetamide] |
|  |  |  | 5.79 | 4.99 | 5.38 | CCc1c(-c2ccc(OC)c(OC)c2)[nH]c2ccc(C(=O)N3CCN(c4ccc(C(F)(F)F)cn4)CC3)cc12 [Example 61, (2-(3,4-dimethoxyphenyl)-3-ethyl-1H-indol-5-yl)(4-(5-(trifluoromethyl)pyridin-2-yl)piperazin-1-yl)methanone] |
|  |  |  | 7.27 | 6.37 | 7.00 | COc1ccc(-c2[nH]c3ccc(C(=O)N4CC5CN(C6CCN(C)CC6)CC5C4)cc3c2C(C)C)cc1OC (stereo not drawn) [Example 15, (2-(3,4-dimethoxyphenyl)-3-isopropyl-1H-indol-5-yl)(5-(1-methylpiperidin-4-yl)hexahydropyrrolo[3,4-c]pyrrol-2(1H)-yl)methanone] |
